{
  "source": "patent US20060270631A1",
  "about": "“Methods for the treatment and prevention of angiogenic diseases” (priority 2005, published 2006)",
  "assay_type_in_all_cases": "cell-based",
  "key": {"phosphorylated ERK1/2": {"test_system": "phosphorylated ERK1/2", "assay": "Western analysis of phosphorylated ERK1/2 in human RECs", "procedure": "(§1) Western Blotting. Protein concentrations were determined using the fluorescamine assay (Bohlen et al., Arch Biochem Biophys 155: 213 (1973)) with bovine serum albumin as the standard. Samples were normalized for equal amounts of protein per lane (100 μg), separated by sodium dodecylsulfate-polyacrylamide gel electrophoresis and electrotransferred to nitrocellulose membranes. For SK analyses, membranes were blocked with 5% nonfat milk in Tris-buffered saline with Tween 20 and probed with an anti-SK rabbit polyclonal antibody at a 1:50 dilution, washed and incubated with […] antibodies conjugated to horseradish peroxidase (1 hr in 3% nonfat milk). The blots were then washed 4 times for 5 minutes at room temperature, developed with SuperSignal development reagents (Pierce Biotechnology, Inc., Rockford, Ill.) and exposed to Kodak XAR film. […]\n(§2) Western analyses were conducted to evaluate the effects of Compound II on signaling proteins known to be regulated in endothelial cells by VEGF or TNFα. […] Cell lysates from cells treated with VEGF for 15 minutes were then analyzed for levels of phosphorylated ERK1/2 as a measure of signaling through the Ras-mediated proliferation pathway. Samples from cells treated with TNFα were analyzed for activation of NFκB, i.e. phosphoNFκB, and the down-stream proteins, cyclooxygenase-2 (Cox-2), E-selectin and VCAM-1. […]"}, "E-selectin and VCAM-1": {"test_system": "E-selectin and VCAM-1", "assay": "Western analysis of TNFα-induced E-selectin and VCAM-1 in human RECs", "conditions": "TNFα 100 ng/mL, 6 hours", "procedure": "as §1, §2"}, "human RECs [1]": {"test_system": "human RECs", "assay": "Cytotoxicity assay (sulforhodamine) toward human RECs", "conditions": "12 or 14 hours, serum-starved human RECs", "procedure": "FIG. 4. Toxicity of Compound II toward HRECs. Human RECs were serum-starved for 24 hours and then left untreated for 12 hours (▪) or incubated with 50 ng/mL VEGF (▴) for 14 hours in the presence of the indicated concentration of Compound II. These protocols were chosen to exactly match conditions in SK activity and proliferation experiments described below. After incubation, the percentages of cells that survived the treatment were determined. Values represent the mean i SD cell survival in triplicate samples in a typical experiment.\nCytotoxicity assays. Cells were grown to confluence in 96-well tissue culture plates and serum-starved for 24 hours as described above. Cells were then treated with varying concentrations of Compound II for 12 hours (to parallel the SK activity assays described above) or with varying concentrations of Compound II and 50 ng/mL of VEGF for 14 hours (to parallel the proliferation assays described below). Cell survival was determined using the sulforhodamine assay (Skehan et al., J Natl Cancer Inst 82: 1107 (1990)).\nSince Compound II was the most efficacious inhibitor of SK in the RECs, this compound was used to characterize the biological effects of inhibiting SK in these cells. It was first necessary to determine the toxic effects of this compound toward cultures of RECs under conditions identical to subsequent signal studies. […]"}, "human RECs [2]": {"test_system": "human RECs", "assay": "VEGF-stimulated proliferation of human RECs ([3H]thymidine incorporation)", "conditions": "VEGF 50 ng/mL, 12 hours + 2 hours [3H]thymidine, serum-starved human RECs", "procedure": "FIG. 6. Effects of Compound II on VEGF-stimulated proliferation of RECs. Human RECs were serum-starved for 24 hours and then left untreated or incubated with VEGF (50 ng/mL) in the presence of the indicated concentration (in μM) of Compound II for 12 hours. [3H]Thymidine was then added and the cultures were incubated an additional 2 hours. The amount of [^3H]thymidine incorporated into DNA was determined. Values represent the mean±SD of duplicate samples in a typical experiment.\nCell proliferation assay. Cells were grown to confluence in 24-well tissue culture plates and serum-starved overnight as described above. Cells were then treated with 50 ng/mL of VEGF and varying concentrations of Compound II for 12 hours. At that time, 16 μCi of [3H]thymidine was added to each well, and the cultures were incubated for an additional 2 hours. The media was then removed by aspiration, the cells were washed twice with cold PBS, and 0.8 mL of ice-cold 10% trichloroacetic acid was added to each well. […] The samples were incubated at 37° C. for 30 minutes, scraped into scintillation vials, and the amount of ^3H in the recovered genomic DNA was quantified by scintillation counting.\nWe next evaluated the effects of VEGF on the proliferation of human RECs by measuring the effects of the growth factor of the incorporation of [^3H]thymidine into the DNA of serum-starved cells. […]"}},
  "data": [
    {"smiles": "Oc1ccc(Nc2nc(-c3ccc(Cl)cc3)cs2)cc1", "note": "[Compound II]", "values": [
      {"measurement": "VEGF-promoted phosphorylation of ERK1/2", "setting": "phosphorylated ERK1/2; VEGF 50 ng/mL, 15 minutes", "result": "completely abrogated"},
      {"measurement": "residual pERK1/2 in serum-starved cells", "setting": "phosphorylated ERK1/2; human RECs, no VEGF", "result": "eliminated"},
      {"measurement": "TNFα-induced up-regulation of E-selectin expression", "setting": "E-selectin and VCAM-1", "result": "completely blocked"},
      {"measurement": "TNFα-induced up-regulation of VCAM-1 expression", "setting": "E-selectin and VCAM-1", "result": "completely blocked"},
      {"measurement": "cell kill", "setting": "human RECs [1]; concentrations up to approximately 16 μM", "result": "< 10", "unit": "%"},
      {"measurement": "cell kill", "setting": "human RECs [1]; concentrations up to at least 65 μM", "result": "less than 25%"},
      {"measurement": "concentration blocking the mitogenic response to VEGF", "setting": "human RECs [2]", "result": "≥ 1.3", "unit": "µM"}
    ]}
  ]
}
